# Values of other authors in patent publication US20030206958A1, “Chitosan biopolymer for the topical delivery of active agents” (priority 2002, published 2003).
smiles,measurement,setting,value
"CC1=C(/C=C/C(C)=C/C=C/C(C)=C/C(=O)O)C(C)(C)CCC1 [tretinoin, all-trans retinoic acid]",Patients with irritation,"topical (Gilchrest, 1997)",90 % of patients
same,Patients discontinuing treatment because of irritation,"topical (Stam-Posthuma et al., 1998)",~50 % of patients
